How the values were obtained:
Type in all cases: in vivo
[1] = system: barnyardgrass (Echinochloa crus-galli); test: Test G Post-Emergence Protocol; details: Echinochloa crus-galli, post-emergence, 312 h; for pest or weed control at 15.625 g/ha: 15.625 g ai/ha, evaluated after 13 days (100=total damage to plant; 0=no damage to plant), read-out: Barnyardgrass damage rating; for pest or weed control at 62.5 g/ha: 62.5 g ai/ha, read-out: Barnyardgrass damage rating (100=total damage to plant; 0=no damage to plant); for pest or weed control at 62.5 g/ha / pest or weed control at 250 g/ha: evaluated after 13 days; for pest or weed control at 250 g/ha: 250 g ai/ha, read-out: damage to plant, Barnyardgrass (100=total damage to plant; 0=no damage to plant)
How it was run: (§1)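 Eight days post-sowing, plants received a spray of test compound (acetone/water 50:50, 0.5% Tween 20) at 15.625, 62.5 or 250 g/ha. Glasshouse regime thereafter: 24/16 °C, 14 h light, 65% humidity. Assessment after 13 days on a 0–100 damage scale.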

[2] = system: redroot pigweed (Amaranthus retroflexus); test: Test G Post-Emergence Protocol; details: Amaranthus retroflexus, post-emergence, 312 h; for pest or weed control at 15.625 g/ha: 15.625 g ai/ha, evaluated after 13 days (100=total damage to plant; 0=no damage to plant), read-out: Pigweed, Redroot damage rating; for pest or weed control at 62.5 g/ha: 62.5 g ai/ha, read-out: Pigweed, Redroot damage rating (100=total damage to plant; 0=no damage to plant); for pest or weed control at 62.5 g/ha / pest or weed control at 250 g/ha: evaluated after 13 days; for pest or weed control at 250 g/ha: 250 g ai/ha, read-out: damage to plant, Pigweed, Redroot (100=total damage to plant; 0=no damage to plant)
How it was run: as §1

[3] = system: giant foxtail (Setaria faberi); test: Test G Post-Emergence Protocol; details: Setaria faberi, post-emergence, 312 h; for pest or weed control at 15.625 g/ha: 15.625 g ai/ha, evaluated after 13 days (100=total damage to plant; 0=no damage to plant), read-out: Foxtail, Giant damage rating; for pest or weed control at 62.5 g/ha: 62.5 g ai/ha, read-out: Foxtail, Giant damage rating (100=total damage to plant; 0=no damage to plant); for pest or weed control at 62.5 g/ha / pest or weed control at 250 g/ha: evaluated after 13 days; for pest or weed control at 250 g/ha: 250 g ai/ha, read-out: damage to plant, Foxtail, Giant (100=total damage to plant; 0=no damage to plant)
How it was run: as §1

[4] = system: ivy-leaved morning glory (Ipomoea hederacea); test: Test G Post-Emergence Protocol; details: Ipomoea, post-emergence, 312 h; for pest or weed control at 15.625 g/ha: 15.625 g ai/ha, evaluated after 13 days (100=total damage to plant; 0=no damage to plant), read-out: Morningglory, Ivy-leaved damage rating; for pest or weed control at 62.5 g/ha: 62.5 g ai/ha, read-out: Morningglory, Ivy-leaved damage rating (100=total damage to plant; 0=no damage to plant); for pest or weed control at 62.5 g/ha / pest or weed control at 250 g/ha: evaluated after 13 days; for pest or weed control at 250 g/ha: 250 g ai/ha, read-out: damage to plant, Morningglory, Ivy-leaved (100=total damage to plant; 0=no damage to plant)
How it was run: as §1

[5] = system: velvetleaf (Abutilon theophrasti); test: Test G Post-Emergence Protocol; details: Abutilon theophrasti, post-emergence, 312 h; for pest or weed control at 15.625 g/ha: 15.625 g ai/ha, evaluated after 13 days (100=total damage to plant; 0=no damage to plant), read-out: Velvetleaf damage rating; for pest or weed control at 62.5 g/ha: 62.5 g ai/ha, read-out: Velvetleaf damage rating (100=total damage to plant; 0=no damage to plant); for pest or weed control at 62.5 g/ha / pest or weed control at 250 g/ha: evaluated after 13 days; for pest or weed control at 250 g/ha: 250 g ai/ha, read-out: damage to plant, Velvetleaf (100=total damage to plant; 0=no damage to plant)
How it was run: as §1

corn (Zea mays) [6] = test: Test G Post-Emergence Protocol; details: Zea mays, post-emergence, 312 h; for plant injury at 15.625 g/ha: 15.625 g ai/ha, evaluated after 13 days (100=total damage to plant; 0=no damage to plant), read-out: Corn damage rating; for plant injury at 62.5 g/ha: 62.5 g ai/ha, read-out: Corn damage rating (100=total damage to plant; 0=no damage to plant); for plant injury at 62.5 g/ha / plant injury at 250 g/ha: evaluated after 13 days; for plant injury at 250 g/ha: 250 g ai/ha, read-out: damage to plant, Corn (100=total damage to plant; 0=no damage to plant)
How it was run: as §1

[7] = system: barnyardgrass (Echinochloa crus-galli); test: Test G Pre-Emergence Protocol; details: Echinochloa crus-galli, pre-emergence, 312 h, evaluated after 13 days; for pest or weed control at 15.625 g/ha: 15.625 g ai/ha, read-out: Barnyard grass damage rating (100=total damage to plant; 0=no damage to plant); for pest or weed control at 62.5 g/ha: 62.5 g ai/ha, 100=total damage to plant, 0=no damage to plant, read-out: plant damage rating, Barnyardgrass; for pest or weed control at 250 g/ha: 250 g ai/ha, read-out: Barnyardgrass damage rating (100=total damage to plant; 0=no damage to plant)
How it was run: (§2)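 One day after sowing, pots are treated with a spray of test compound formulated in acetone/water 50:50 plus 0.5% Tween 20, giving 15.625, 62.5 or 250 g/ha. Evaluation on a 0–100 damage scale follows 13 days of glasshouse growth.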

[8] = system: redroot pigweed (Amaranthus retroflexus); test: Test G Pre-Emergence Protocol; details: Amaranthus retroflexus, pre-emergence, 312 h, evaluated after 13 days; for pest or weed control at 15.625 g/ha: 15.625 g ai/ha; for pest or weed control at 15.625 g/ha / pest or weed control at 250 g/ha: read-out: Pigweed, Redroot damage rating (100=total damage to plant; 0=no damage to plant); for pest or weed control at 62.5 g/ha: 62.5 g ai/ha, 100=total damage to plant, 0=no damage to plant, read-out: plant damage rating, Pigweed, Redroot; for pest or weed control at 250 g/ha: 250 g ai/ha
How it was run: as §2

[9] = system: giant foxtail (Setaria faberi); test: Test G Pre-Emergence Protocol; details: Setaria faberi, pre-emergence, 312 h, evaluated after 13 days; for pest or weed control at 15.625 g/ha: 15.625 g ai/ha; for pest or weed control at 15.625 g/ha / pest or weed control at 250 g/ha: read-out: Foxtail, Giant damage rating (100=total damage to plant; 0=no damage to plant); for pest or weed control at 62.5 g/ha: 62.5 g ai/ha, 100=total damage to plant, 0=no damage to plant, read-out: plant damage rating, Foxtail, Giant; for pest or weed control at 250 g/ha: 250 g ai/ha
How it was run: as §2

[10] = system: ivy-leaved morning glory (Ipomoea hederacea); test: Test G Pre-Emergence Protocol; details: Ipomoea, pre-emergence, 312 h, evaluated after 13 days; for pest or weed control at 15.625 g/ha: 15.625 g ai/ha, read-out: Morning-glory, Ivy-leaved damage rating (100=total damage to plant; 0=no damage to plant); for pest or weed control at 62.5 g/ha: 62.5 g ai/ha, 100=total damage to plant, 0=no damage to plant, read-out: plant damage rating, Morningglory, Ivy-leaved; for pest or weed control at 250 g/ha: 250 g ai/ha, read-out: Morningglory, Ivy-leaved damage rating (100=total damage to plant; 0=no damage to plant)
How it was run: as §2

[11] = system: velvetleaf (Abutilon theophrasti); test: Test G Pre-Emergence Protocol; details: Abutilon theophrasti, pre-emergence, 312 h, evaluated after 13 days; for pest or weed control at 15.625 g/ha: 15.625 g ai/ha; for pest or weed control at 15.625 g/ha / pest or weed control at 250 g/ha: read-out: Velvetleaf damage rating (100=total damage to plant; 0=no damage to plant); for pest or weed control at 62.5 g/ha: 62.5 g ai/ha, 100=total damage to plant, 0=no damage to plant, read-out: plant damage rating, Velvetleaf; for pest or weed control at 250 g/ha: 250 g ai/ha
How it was run: as §2

corn (Zea mays) [12] = test: Test G Pre-Emergence Protocol; details: Zea mays, pre-emergence, 312 h, evaluated after 13 days; for plant injury at 15.625 g/ha: 15.625 g ai/ha; for plant injury at 15.625 g/ha / plant injury at 250 g/ha: read-out: Corn damage rating (100=total damage to plant; 0=no damage to plant); for plant injury at 62.5 g/ha: 62.5 g ai/ha, 100=total damage to plant, 0=no damage to plant, read-out: plant damage rating, Corn; for plant injury at 250 g/ha: 250 g ai/ha
How it was run: as §2

SMILES | pest or weed control at 15.625 g/ha [1] [%] | pest or weed control at 62.5 g/ha [1] [%] | pest or weed control at 250 g/ha [1] [%] | pest or weed control at 15.625 g/ha [2] [%] | pest or weed control at 62.5 g/ha [2] [%] | pest or weed control at 250 g/ha [2] [%] | pest or weed control at 15.625 g/ha [3] [%] | pest or weed control at 62.5 g/ha [3] [%] | pest or weed control at 250 g/ha [3] [%] | pest or weed control at 15.625 g/ha [4] [%] | pest or weed control at 62.5 g/ha [4] [%] | pest or weed control at 250 g/ha [4] [%] | pest or weed control at 15.625 g/ha [5] [%] | pest or weed control at 62.5 g/ha [5] [%] | pest or weed control at 250 g/ha [5] [%] | plant injury at 15.625 g/ha (corn (Zea mays) [6]) [%] | plant injury at 62.5 g/ha (corn (Zea mays) [6]) [%] | plant injury at 250 g/ha (corn (Zea mays) [6]) [%] | pest or weed control at 15.625 g/ha [7] [%] | pest or weed control at 62.5 g/ha [7] [%] | other results
CN1C[C@@H](c2ccc(C(F)(F)F)cc2)[C@H](C(=O)Nc2nccnc2Cl)C1=O (racemic) [Compound 1552] | 0 | 0 | 0 | 0 | 0 | 0 | 0 | 0 | 0 | 0 | 0 | 0 | 0 | 0 | 0 | 10 | 10 | 10 | 0 | 0 | pest or weed control at 250 g/ha [7]: 0%; pest or weed control at 15.625 g/ha [8]: 0%; pest or weed control at 62.5 g/ha [8]: 0%; pest or weed control at 250 g/ha [8]: 0%; pest or weed control at 15.625 g/ha [9]: 0%; pest or weed control at 62.5 g/ha [9]: 0%; pest or weed control at 250 g/ha [9]: 0%; pest or weed control at 15.625 g/ha [10]: 0%; pest or weed control at 62.5 g/ha [10]: 0%; pest or weed control at 250 g/ha [10]: 0%; pest or weed control at 15.625 g/ha [11]: 0%; pest or weed control at 62.5 g/ha [11]: 0%; pest or weed control at 250 g/ha [11]: 0%; plant injury at 15.625 g/ha (corn (Zea mays) [12]): 0%; plant injury at 62.5 g/ha (corn (Zea mays) [12]): 0%; plant injury at 250 g/ha (corn (Zea mays) [12]): 0%
CN1C[C@@H](c2ccc(C(F)(F)F)cc2)[C@H](C(=O)Nc2nccs2)C1=O (racemic) [Compound 1554] | 0 | 0 | 0 | 0 | 0 | 0 | 0 | 0 | 0 | 0 | 0 | 0 | 0 | 0 | 0 | 0 | 0 | 0 | 0 | 0 | pest or weed control at 250 g/ha [7]: 10%; pest or weed control at 15.625 g/ha [8]: 0%; pest or weed control at 62.5 g/ha [8]: 0%; pest or weed control at 250 g/ha [8]: 30%; pest or weed control at 15.625 g/ha [9]: 0%; pest or weed control at 62.5 g/ha [9]: 0%; pest or weed control at 250 g/ha [9]: 20%; pest or weed control at 15.625 g/ha [10]: 0%; pest or weed control at 62.5 g/ha [10]: 0%; pest or weed control at 250 g/ha [10]: 0%; pest or weed control at 15.625 g/ha [11]: 0%; pest or weed control at 62.5 g/ha [11]: 0%; pest or weed control at 250 g/ha [11]: 0%; plant injury at 15.625 g/ha (corn (Zea mays) [12]): 0%; plant injury at 62.5 g/ha (corn (Zea mays) [12]): 0%; plant injury at 250 g/ha (corn (Zea mays) [12]): 0%
Cc1cc(NC(=O)[C@@H]2C(=O)N(C)C[C@H]2c2ccc(C(F)(F)F)cc2)no1 (racemic) [Compound 1556] | 0 | 0 | 20 | 0 | 0 | 0 | 0 | 0 | 0 | 0 | 0 | 0 | 0 | 0 | 0 | 0 | 0 | 0 | 0 | 0 | pest or weed control at 250 g/ha [7]: 0%; pest or weed control at 15.625 g/ha [8]: 0%; pest or weed control at 62.5 g/ha [8]: 0%; pest or weed control at 250 g/ha [8]: 20%; pest or weed control at 15.625 g/ha [9]: 0%; pest or weed control at 62.5 g/ha [9]: 0%; pest or weed control at 250 g/ha [9]: 0%; pest or weed control at 15.625 g/ha [10]: 0%; pest or weed control at 62.5 g/ha [10]: 0%; pest or weed control at 250 g/ha [10]: 0%; pest or weed control at 15.625 g/ha [11]: 0%; pest or weed control at 62.5 g/ha [11]: 0%; pest or weed control at 250 g/ha [11]: 0%; plant injury at 15.625 g/ha (corn (Zea mays) [12]): 0%; plant injury at 62.5 g/ha (corn (Zea mays) [12]): 0%; plant injury at 250 g/ha (corn (Zea mays) [12]): 0%
